Laboratory results published in US20240247080A1, “GLP1/GIP/NPY2 RECEPTOR TRIPLE AGONISTS” (Boehringer Ingelheim International GmbH, priority 2022, published 2024).
Like-named read-outs stand apart in the source and are kept apart here. Starred links: 1 amine or outer side, 2 acyl side, 3 side chain; linkers in the order of their positions; H or OH if unused. Non-standard residues stand in square brackets, D forms with d. Groups on a side chain read outwards from the residue. *: point of attachment. C20 diacid = O=C(O)CCCCCCCCCCCCCCCCCCC(=O)*; C18 diacid = O=C(O)CCCCCCCCCCCCCCCCC(=O)*; γGlu = O=C(O)[C@H](CCC(=O)[*:2])N[*:1]; εLys = N[C@@H](CCCCN[*:1])C(=O)[*:2]; NMeQ = CN[C@@H](CCC(N)=O)C(=O)O; AEEA = NCCOCCOCC(=O)O; Aib = CC(C)(N)C(=O)O; Ahx = NCCCCCC(=O)O

Key:
[1] = target: T1, hGLP1R (Homo sapiens, UniProt P43220); assay: hGLP1R CreLuc reporter gene assay in 0.5% and 100% plasma; type: cell-based; conditions: CreLuc reporter gene assay
T1 construct: expressed in transfected cells; host or cells: HEK-293 cells carrying a CRE-luciferase reporter gene
T1 sequence (P43220 24-463): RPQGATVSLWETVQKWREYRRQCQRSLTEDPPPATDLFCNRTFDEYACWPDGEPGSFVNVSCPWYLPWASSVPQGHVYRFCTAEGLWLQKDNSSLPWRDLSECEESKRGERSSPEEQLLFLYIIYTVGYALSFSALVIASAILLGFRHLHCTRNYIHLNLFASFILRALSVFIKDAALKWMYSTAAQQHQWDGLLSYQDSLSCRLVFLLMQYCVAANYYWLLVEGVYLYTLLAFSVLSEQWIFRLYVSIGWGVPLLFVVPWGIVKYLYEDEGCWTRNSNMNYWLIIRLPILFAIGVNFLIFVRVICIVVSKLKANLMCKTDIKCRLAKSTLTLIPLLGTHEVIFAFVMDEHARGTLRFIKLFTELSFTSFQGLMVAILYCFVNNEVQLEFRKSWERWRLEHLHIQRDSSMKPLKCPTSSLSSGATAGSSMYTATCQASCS
From the text: (§1) Example 1: hGLPR/hGIPR/hNPY2R CreLuc Assay in 0.5% and 100% Plasma
(§2) CHO and HEK-293 recombinant cell lines express a luciferase reporter gene under control of the cAMP responsive element (CRE). As a second recombinant protein the GLP-1 and NPY2 receptors were expressed in the reporter gene HEK cells, and the GIP receptor was expressed in the reporter gene CHO cells, respectively. Stimulation of these recombinant cells with an agonist leads to an increase of intracellular cAMP levels. In the presence of cAMP, the transcription factor CRE binding protein (CREB) binds to the CRE and to the CREB binding protein (CBP), which leads to transcription of the luciferase reporter gene. Peptides upon serial-dilution in 100% DMSO were transferred into 384-well assay plates with 5 μl pre-dispensed assay buffer (1×HBSS, 20 mM HEPES, pH7.4 supplemented with 0.5% human plasma) using acoustic dispensing on a Labcyte ECHO. Cryo-preserved transgenic reporter gene cells were thawed in assay buffer. 20 μl (10.000 cells/well) were added to the plate with the peptides and incubated for 4 hours at 37° C. in a humidified incubator. Following incubation, assay plates are equilibrated to room temperature, followed by addition of 25 μl of Bright-GIo™ Luciferase reagent, incubation at room temperature for 10 minutes and analysis of luminescence (Envision Reader). Concentration response evaluation of compounds was performed with 8 concentrations of peptides (covering four decades). EC50 values were calculated by non-linear regression using sigmoid concentration-response with variable slope. The same assays were run in the presence of 100% plasma with no additional buffer constituents.

[2] = target: T2, hGIPR (Homo sapiens, UniProt P48546); assay: hGIPR CreLuc reporter gene assay in 0.5% and 100% plasma; type: cell-based; conditions: CreLuc reporter gene assay
T2 construct: expressed in transfected cells; host or cells: CHO cells carrying a CRE-luciferase reporter gene
T2 sequence (P48546 22-466): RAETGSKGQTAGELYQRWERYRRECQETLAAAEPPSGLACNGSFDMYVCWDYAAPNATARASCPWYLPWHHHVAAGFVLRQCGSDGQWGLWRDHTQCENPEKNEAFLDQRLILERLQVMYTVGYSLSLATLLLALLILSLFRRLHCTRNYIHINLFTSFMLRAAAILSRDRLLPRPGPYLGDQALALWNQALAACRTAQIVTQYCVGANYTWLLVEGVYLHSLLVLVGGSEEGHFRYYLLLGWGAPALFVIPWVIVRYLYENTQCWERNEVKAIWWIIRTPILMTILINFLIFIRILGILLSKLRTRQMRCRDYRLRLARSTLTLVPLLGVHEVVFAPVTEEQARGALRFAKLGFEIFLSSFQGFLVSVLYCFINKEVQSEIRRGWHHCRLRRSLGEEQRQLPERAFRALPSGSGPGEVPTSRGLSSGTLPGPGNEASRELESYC
From the text: as §1, §2

[3] = 0.5% human plasma, read-out: hGLP1R 0.5% hP
[4] = 0.5% human plasma, read-out: hGIPR 0.5% hP
[5] = 100% human plasma, read-out: hGIPR 100% hP
[6] = 100% human plasma, read-out: hGLP1R 100% hP

“H-Y[Aib]EGTFTSDYSI[Aib]LEKQAQ[Aib]AFVEWLIK([εLys-γGlu-γGlu-γGlu-γGlu-γGlu-γGlu-C20 diacid])GGQSSGASLRHYYNWLTRQRY-NH2 [Compound 123, Y-Aib-E-G-T-F-T-S-D-Y-S-I-Aib-L-E-K-Q-A-Q-Aib-A-F-V-E-W-L-I-K(1,3)-GGQSSGASLRHYYNWLTRQRY-NH2.C20DA-gGlu-gGlu-gGlu-gGlu-gGlu-gGlu-eLys(1,2)]” was tested, and the EC50 [1, 3] was 0.24 nM and the EC50 [2, 4] was 0.42 nM.
For “H-Y[Aib]EGTFTSDYSI[Aib]LEKQAQ[Aib]AFVEYLIK([εLys-γGlu-γGlu-γGlu-γGlu-γGlu-γGlu-C20 diacid])GGPSSGASLRHYYNWLTRQRY-NH2 [Compound 135, Y-Aib-E-G-T-F-T-S-D-Y-S-I-Aib-L-E-K-Q-A-Q-Aib-A-F-V-E-Y-L-I-K(1,3)-GGPSSGASLRHYYNWLTRQRY-NH2.C20DA-gGlu-gGlu-gGlu-gGlu-gGlu-gGlu-eLys(1,2)]”, the EC50 [1, 3] was 0.24 nM, the EC50 [2, 4] was 0.11 nM and the EC50 [2, 5] was 1.07 nM.
“H-Y[Aib]EGTFTSDYSI[Aib]LEKQAQ[Aib]AFVQWLIK([AEEA-AEEA-γGlu-γGlu-γGlu-γGlu-C18 diacid])GGPEEPASLRHYYNWLTRQRY-NH2 [Compound 57, Y-Aib-E-G-T-F-T-S-D-Y-S-I-Aib-L-E-K-Q-A-Q-Aib-A-F-V-Q-W-L-I-K(1,3)-GGPEEPASLRHYYNWLTRQRY-NH2.C18DA-gGlu-gGlu-gGlu-gGlu-OEG-OEG(1,2)]” was tested, and the EC50 [1, 3] was 0.14 nM, the EC50 [2, 4] was 0.18 nM and the EC50 [2, 5] was 1.17 nM.
For “H-Y[Aib]EGTFTSDYSI[Aib]LEKQAQ[Aib]AFVQWLIK([AEEA-AEEA-γGlu-γGlu-γGlu-γGlu-C20 diacid])GGPSEGASLRHYYNWLTRQRY-NH2 [Compound 269, Y-Aib-E-G-T-F-T-S-D-Y-S-I-Aib-L-E-K-Q-A-Q-Aib-A-F-V-Q-W-L-I-K(1,3)-GGPSEGASLRHYYNWLTRQRY-NH2.C20DA-gGlu-gGlu-gGlu-gGlu-OEG-OEG(1,2)]”, the EC50 [1, 3] was 0.14 nM, the EC50 [1, 6] was 3.86 nM and the EC50 [2, 4] was 0.46 nM. The EC50 [2, 5] was 1.23 nM.
For “H-Y[Aib]EGTFTSDYSI[Aib]LEKQAQ[Aib]AFVQWLIK([AEEA-AEEA-γGlu-γGlu-γGlu-γGlu-γGlu-C20 diacid])GGPSEGASLRHYYNWLTRQRY-NH2 [Compound 228, Y-Aib-E-G-T-F-T-S-D-Y-S-I-Aib-L-E-K-Q-A-Q-Aib-A-F-V-Q-W-L-I-K(1,3)-GGPSEGASLRHYYNWLTRQRY-NH2.C20DA-gGlu-gGlu-gGlu-gGlu-gGlu-OEG-OEG(1,2)]”, the EC50 [1, 3] was 0.12 nM, the EC50 [2, 4] was 0.23 nM and the EC50 [2, 5] was 1.52 nM.
With “H-Y[Aib]EGTFTSDYSI[Aib]LEKQAQ[Aib]AFVQWLIK([Ahx-γGlu-γGlu-γGlu-γGlu-γGlu-C18 diacid])GGPEEGASLRHYYNWLTRQRY-NH2 [Compound 162, Y-Aib-E-G-T-F-T-S-D-Y-S-I-Aib-L-E-K-Q-A-Q-Aib-A-F-V-Q-W-L-I-K(1,3)-GGPEEGASLRHYYNWLTRQRY-NH2.C18DA-gGlu-gGlu-gGlu-gGlu-gGlu-AHX(1,2)]” the EC50 [1, 3] was 0.2 nM, the EC50 [2, 4] was 0.25 nM and the EC50 [2, 5] was 1.61 nM.
Substance “H-Y[Aib]EGTFTSDYSI[Aib]LEKQAQ[Aib]AFVQWLIK([γGlu-γGlu-γGlu-γGlu-C18 diacid])GGPSEGASLRHYYNWLTRQRY-NH2 [Compound 268, Y-Aib-E-G-T-F-T-S-D-Y-S-I-Aib-L-E-K-Q-A-Q-Aib-A-F-V-Q-W-L-I-K(1,3)-GGPSEGASLRHYYNWLTRQRY-NH2.C18DA-gGlu-gGlu-gGlu-gGlu(1,2)]” has an EC50 [1, 3] of 0.08 nM, an EC50 [2, 4] of 0.17 nM and an EC50 [2, 5] of 1.01 nM.
“H-Y[Aib]EGTFTSDYSI[Aib]LEKQAQ[Aib]AFVQWLIK([γGlu-γGlu-γGlu-γGlu-γGlu-C20 diacid])GGPESGASLRHYYNWLTRQRY-NH2 [Compound 29, Y-Aib-E-G-T-F-T-S-D-Y-S-I-Aib-L-E-K-Q-A-Q-Aib-A-F-V-Q-W-L-I-K(1,3)-GGPESGASLRHYYNWLTRQRY-NH2.C20DA-gGlu-gGlu-gGlu-gGlu-gGlu(1,2)]” gave an EC50 [1, 3] of 0.13 nM, an EC50 [1, 6] of 6.74 nM and an EC50 [2, 4] of 0.23 nM.
With “H-Y[Aib]EGTFTSDYSI[Aib]LEKQAQ[Aib]AFVQWLIK([εLys-γGlu-γGlu-γGlu-γGlu-γGlu-C20 diacid])GGPESGASLRHYYNWLTRQRY-NH2 [Compound 61, Y-Aib-E-G-T-F-T-S-D-Y-S-I-Aib-L-E-K-Q-A-Q-Aib-A-F-V-Q-W-L-I-K(1,3)-GGPESGASLRHYYNWLTRQRY-NH2.C20DA-gGlu-gGlu-gGlu-gGlu-gGlu-eLys(1,2)]” the EC50 [1, 3] was 0.11 nM, the EC50 [1, 6] was 3.95 nM and the EC50 [2, 4] was 0.36 nM. The EC50 [2, 5] was 0.56 nM.
In the case of “H-Y[Aib]EGTFTSDYSI[Aib]LEKQAQ[Aib]AFVQWLIK([εLys-γGlu-γGlu-γGlu-γGlu-γGlu-γGlu-C20 diacid])GGPESGASLRHYYNWLTRQRY-NH2 [Compound 37, Y-Aib-E-G-T-F-T-S-D-Y-S-I-Aib-L-E-K-Q-A-Q-Aib-A-F-V-Q-W-L-I-K(1,3)-GGPESGASLRHYYNWLTRQRY-NH2.C20DA-gGlu-gGlu-gGlu-gGlu-gGlu-gGlu-eLys(1,2)]”, the EC50 [1, 3] is reported as 0.11 nM, the EC50 [2, 4] is reported as 0.24 nM and the EC50 [2, 5] is reported as 1.44 nM.
With “H-Y[Aib]EGTFTSDYSI[Aib]LEKQAQ[Aib]AFVQWLIK([εLys-γGlu-γGlu-γGlu-γGlu-γGlu-γGlu-C20 diacid])GGPRYYASLRHYYNWLTRQRY-NH2 [Compound 14, Y-Aib-E-G-T-F-T-S-D-Y-S-I-Aib-L-E-K-Q-A-Q-Aib-A-F-V-Q-W-L-I-K(1,3)-GGPRYYASLRHYYNWLTRQRY-NH2.C20DA-gGlu-gGlu-gGlu-gGlu-gGlu-gGlu-eLys(1,2)]” the EC50 [1, 3] was 0.4 nM and the EC50 [2, 4] was 0.71 nM.
Work on “H-Y[Aib]EGTFTSDYSI[Aib]LEKQAQ[Aib]AFVQWLIK([εLys-γGlu-γGlu-γGlu-γGlu-γGlu-γGlu-C20 diacid])GGPSEGASLRHYYNWLTR[NMeQ]RY-NH2 [Compound 115, Y-Aib-E-G-T-F-T-S-D-Y-S-I-Aib-L-E-K-Q-A-Q-Aib-A-F-V-Q-W-L-I-K(1,3)-G-G-P-S-E-G-A-S-L-R-H-Y-Y-N-W-L-T-R-NMeQ-R-Y-NH2.C20DA-gGlu-gGlu-gGlu-gGlu-gGlu-gGlu-eLys(1,2)]” yielded an EC50 [1, 3] of 0.12 nM and an EC50 [2, 4] of 0.51 nM.
“H-Y[Aib]EGTFTSDYSI[Aib]LEKQAQ[Aib]AFVQWLIK([εLys-γGlu-γGlu-γGlu-γGlu-γGlu-γGlu-C20 diacid])GGPSSGVSLRHYYNWLTRQRY-NH2 [Compound 47, Y-Aib-E-G-T-F-T-S-D-Y-S-I-Aib-L-E-K-Q-A-Q-Aib-A-F-V-Q-W-L-I-K(1,3)-GGPSSGVSLRHYYNWLTRQRY-NH2.C20DA-gGlu-gGlu-gGlu-gGlu-gGlu-gGlu-eLys(1,2)]” showed an EC50 [1, 3] of 0.07 nM, an EC50 [2, 4] of 0.25 nM and an EC50 [2, 5] of 0.73 nM.
Work on “H-Y[Aib]EGTFTSDYSI[Aib]LEKQAQ[Aib]EFVEWLIK([AEEA-γGlu-γGlu-γGlu-C18 diacid])GGPSEGASLRHYYNWLTRQRY-NH2 [Compound 274, Y-Aib-E-G-T-F-T-S-D-Y-S-I-Aib-L-E-K-Q-A-Q-Aib-E-F-V-E-W-L-I-K(1,3)-GGPSEGASLRHYYNWLTRQRY-NH2.C18DA-gGlu-gGlu-gGlu-OEG(1,2)]” yielded an EC50 [1, 3] of 0.41 nM and an EC50 [2, 4] of 0.23 nM.
For “H-Y[Aib]EGTFTSDYSI[Aib]LEKQAQ[Aib]EFVQWLIK([AEEA-AEEA-Glu-Glu-Glu-C18 diacid])GGPSEGASLRHYYNWLTRQRY-NH2 [Compound 157, Y-Aib-E-G-T-F-T-S-D-Y-S-I-Aib-L-E-K-Q-A-Q-Aib-E-F-V-Q-W-L-I-K(1,3)-GGPSEGASLRHYYNWLTRQRY-NH2.C18DA-E-E-E-OEG-OEG(1,2)]”, the EC50 [1, 3] was 0.35 nM, the EC50 [2, 4] was 0.38 nM and the EC50 [2, 5] was 1.58 nM.
